The values below come from PubChem BioAssay AID1963979 (Molecular Pharmacology Branch, DTP, NCI, 2024).

The test system of the experiment is 361931-004-R-J1-PDC multicell spheroid viability. Kind of experiment: Anticancer human tumor 361931-004-R-J1-PDC patient-derived colon adenocarcinoma cell line growth inhibition [PI3K]. As to conditions: for viability, T/C: stronger effect = lower value. In short, it runs like this:
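Multi-cell spheroids combine tumor cells with HUVEC and human MSCs, treated with targeted agents alone or with inavolisib, alpelisib, duvelisib or copanlisib. Concentrations fall in half-log steps from at or near clinical Cmax, or from 10 microM where Cmax is unknown; viability read-out.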

Setting [1] is: curve of first compound, second compound 0.0316 µM.
[2] abbreviates: curve of first compound, second compound 0.1 µM.
Where [3] appears, read: curve of first compound, second compound 0.316 µM.
Where [4] appears, read: curve of first compound, second compound 1 µM.
The mark [5] stands for this setting: curve of first compound, second compound 3.16 µM.
[6] abbreviates: curve of first compound, second compound 10 µM.

The structures appear in SMILES notation.
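Note: spheroids exposed to agents for seven days before readout.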

Turning to `Cn1cnc2c(F)c(Nc3ccc(Br)cc3Cl)c(C(=O)NOCCO)cc21` + CC(Nc1ncnc2nc[nH]c12)c1cc2cccc(Cl)c2c(=O)n1-c1ccccc1, the IC50 – broadly, the concentration that inhibits the measured activity by half – is greater than 3 µM under setting [1]; greater than 3 µM under setting [2]; greater than 3 µM under setting [3]; greater than 3 µM under setting [4]; 2.88 µM under setting [5]; 1.67 µM under setting [6]. Besides, the viability, T/C (usually the ratio of treated to control) was 98.1% (second compound 0.0316 µM, first compound 0.00949 µM); 95.3% (second compound 0.0316 µM, first compound 0.03 µM); 94% (second compound 0.0316 µM, first compound 0.0949 µM); 87.4% (second compound 0.0316 µM, first compound 0.3 µM); 82% (second compound 0.0316 µM, first compound 0.949 µM); 59.1% (second compound 0.0316 µM, first compound 3 µM). For the same molecule, the viability, T/C was 109% (second compound 0.1 µM, first compound 0.00949 µM); 96.2% (second compound 0.1 µM, first compound 0.03 µM); 94.2% (second compound 0.1 µM, first compound 0.0949 µM); 82.9% (second compound 0.1 µM, first compound 0.3 µM); 87.4% (second compound 0.1 µM, first compound 0.949 µM); 61.7% (second compound 0.1 µM, first compound 3 µM). In addition, the viability, T/C reads like this: (second compound 0.316 µM, first compound 0.00949 µM) 105%; (second compound 0.316 µM, first compound 0.03 µM) 102%; (second compound 0.316 µM, first compound 0.0949 µM) 88.8%; (second compound 0.316 µM, first compound 0.3 µM) 85.8%; (second compound 0.316 µM, first compound 0.949 µM) 82.9%; (second compound 0.316 µM, first compound 3 µM) 58.1%. The viability, T/C is 97.9% (second compound 1 µM, first compound 0.00949 µM); 94.4% (second compound 1 µM, first compound 0.03 µM); 93.3% (second compound 1 µM, first compound 0.0949 µM); 79.5% (second compound 1 µM, first compound 0.3 µM); 81.4% (second compound 1 µM, first compound 0.949 µM); 59.7% (second compound 1 µM, first compound 3 µM). For the same molecule, the viability, T/C (second compound 3.16 µM, first compound 0.00949 µM) was 92.8%; the viability, T/C (second compound 3.16 µM, first compound 0.03 µM) was 96.2%; the viability, T/C (second compound 3.16 µM, first compound 0.0949 µM) is 90.9%; the viability, T/C (second compound 3.16 µM, first compound 0.3 µM) was 91.3%; the viability, T/C (second compound 3.16 µM, first compound 0.949 µM) is 77%; the viability, T/C (second compound 3.16 µM, first compound 3 µM) was 48.9%. Moreover, the viability, T/C is 99.1% (second compound 10 µM, first compound 0.00949 µM); 92.4% (second compound 10 µM, first compound 0.03 µM); 86.9% (second compound 10 µM, first compound 0.0949 µM); 85.2% (second compound 10 µM, first compound 0.3 µM); 66.5% (second compound 10 µM, first compound 0.949 µM); 33% (second compound 10 µM, first compound 3 µM).
On to `Cn1ncnc1[C@H]1c2n[nH]c(=O)c3cc(F)cc(c23)N[C@@H]1c1ccc(F)cc1`, for which the viability, T/C reads like this: (compound 0.000316 µM) 103% [middle of 4 runs]; (compound 0.001 µM) 99.7% [middle of 4 runs]; (compound 0.00316 µM) 96.5% [middle of 4 runs]; (compound 0.01 µM) 101% [middle of 4 runs]; (compound 0.0316 µM) 102% [middle of 4 runs]. For the same molecule, the IC50 (curve of compound) is greater than 0.1 µM.
As for `COc1c(OCCCN2CCOCC2)ccc2c3n(c(=NC(=O)c4cnc(N)nc4)nc12)CCN3`, the viability, T/C reads like this: (compound 0.00316 µM) 102% [middle of 8 runs]; (compound 0.01 µM) 98.4% [middle of 8 runs]; (compound 0.0316 µM) 95.4% [middle of 8 runs]; (compound 0.1 µM) 80.6% [middle of 8 runs]; (compound 0.316 µM) 55.9% [middle of 8 runs]; (compound 1 µM) 22.8% [middle of 8 runs]. In addition, the IC50 (compound alone, run of 05/09/2023) is 393 nM [middle of 8 runs].
On to `CC(Cn1ccc(-c2ccc(C#N)c(Cl)c2)n1)NC(=O)c1cc(C(C)O)[nH]n1` (centres undefined), for which the viability, T/C by setting is: (compound 0.0316 µM) 104% [middle of 4 runs]; (compound 0.1 µM) 97.2% [middle of 4 runs]; (compound 0.316 µM) 105% [middle of 4 runs]; (compound 1 µM) 104% [middle of 4 runs]; (compound 3.16 µM) 102% [middle of 4 runs]; (compound 10 µM) 106% [middle of 4 runs]. Moreover, where the note is “curve of compound”, the half-maximal inhibitory concentration (IC50) is greater than 10 µM.
Take `CC1(C)CCC(Nc2ncc(C(F)(F)F)c(-c3c[nH]c4c(P(C)(C)=O)c(C#N)ccc34)n2)CN1` (centres undefined) + Cc1nc(NC(=O)N2CCCC2C(N)=O)sc1-c1ccnc(C(C)(C)C(F)(F)F)c1: the IC50 under setting [1] is 4.5 µM; the IC50 under setting [2] was determined as 3.7 µM; the IC50 under setting [3] came to 4.24 µM; the IC50 under setting [4] worked out at 4.32 µM; the IC50 under setting [5] turned out to be 2.72 µM; the IC50 under setting [6] is less than 0.0316 µM. The viability, T/C is 97.1% (second compound 0.0316 µM, first compound 0.0316 µM); 82.6% (second compound 0.0316 µM, first compound 0.1 µM); 79.9% (second compound 0.0316 µM, first compound 0.316 µM); 79.9% (second compound 0.0316 µM, first compound 1 µM); 71.3% (second compound 0.0316 µM, first compound 3.16 µM); 5.89% (second compound 0.0316 µM, first compound 10 µM). The viability, T/C (second compound 0.1 µM, first compound 0.0316 µM) is 101%; the viability, T/C (second compound 0.1 µM, first compound 0.1 µM) was 92.8%; the viability, T/C (second compound 0.1 µM, first compound 0.316 µM) was 84.9%; the viability, T/C (second compound 0.1 µM, first compound 1 µM) is 78.5%; the viability, T/C (second compound 0.1 µM, first compound 3.16 µM) was 59.7%; the viability, T/C (second compound 0.1 µM, first compound 10 µM) is 7.04%. Further, the viability, T/C by setting is: (second compound 0.316 µM, first compound 0.0316 µM) 89.8%; (second compound 0.316 µM, first compound 0.1 µM) 84.4%; (second compound 0.316 µM, first compound 0.316 µM) 74.8%; (second compound 0.316 µM, first compound 1 µM) 70.6%; (second compound 0.316 µM, first compound 3.16 µM) 69.1%; (second compound 0.316 µM, first compound 10 µM) 5.97%. In addition, the viability, T/C reads like this: (second compound 1 µM, first compound 0.0316 µM) 76.5%; (second compound 1 µM, first compound 0.1 µM) 68.6%; (second compound 1 µM, first compound 0.316 µM) 65.2%; (second compound 1 µM, first compound 1 µM) 80.4%; (second compound 1 µM, first compound 3.16 µM) 65.8%; (second compound 1 µM, first compound 10 µM) 6.15%. Further, the viability, T/C reads like this: (second compound 3.16 µM, first compound 0.0316 µM) 73.5%; (second compound 3.16 µM, first compound 0.1 µM) 62.5%; (second compound 3.16 µM, first compound 0.316 µM) 59.5%; (second compound 3.16 µM, first compound 1 µM) 57.5%; (second compound 3.16 µM, first compound 3.16 µM) 51.4%; (second compound 3.16 µM, first compound 10 µM) 4.43%. The viability, T/C (second compound 10 µM, first compound 0.0316 µM) is 49.1%; the viability, T/C (second compound 10 µM, first compound 0.1 µM) is 51.9%; the viability, T/C (second compound 10 µM, first compound 0.316 µM) is 44.9%; the viability, T/C (second compound 10 µM, first compound 1 µM) is 44.1%; the viability, T/C (second compound 10 µM, first compound 3.16 µM) is 39.5%; the viability, T/C (second compound 10 µM, first compound 10 µM) was 1.98%.
